In patent US11191754B2, “Inhibitors of nucleotidyl transferases and uses in herpes and hepatitis viral infections therefor” (Saint Louis University, priority 2015, dated 2021):
Where “and” joins values, the source holds several entries; their conditions need not be identical. Equal entries are not always repeated. Where two headings read alike, the source gives them in different places.

Experiments:
[1] = Mouse liver microsome assay; format: in vitro ADME; conditions: for CLint scaled at 1 μM: mouse, liver microsomes
Experimental: Microsomal incubations are run at a final P450 concentration of 0.25 μM. […] The mixture is prewarmed for 5 min at 37° C. To initiate the reaction a 12 mM stock of NAPDH (1.2 mM, final concentration) is added to the warmed microsomal mixture and aliquots are removed at 0, 5, 10, 20 and 30 min. […] Samples are vortexed and spun down at 3200 rpm for 5 min. The supernant is transferred to 96-deep well plates and run on LC/MS/MS.

HSV-2 = assay: Anti-HSV-2 replication assay (virus yield by plaque assay on Vero cells); format: cell-based, herpes simplex virus 2 (HSV-2); conditions: for HSV-2 inhibition category: semi-quantitative replication inhibition assay
Experimental: (§1) Vero cells were maintained in Dulbecco's modified Eagle's medium (DMEM) containing 3% newborn calf serum, 3% bovine growth serum, 2 mM L-glutamine and 100 IU/mL penicillin and 0.1 mg/mL streptomycin (P/S). HSV-1 #6 and HSV-2 #1 are de-identified clinical isolates from the Saint Louis University Hospital. Stocks were prepared after a single passage in cell culture and were titered by standard plaque assay (Knipe and Spang, 1982). Wild-type HSV-2 used in FIG. 3 was laboratory strain 333. […] Virus stocks were grown and titered on Vero cells (Morrison and Knipe, 1996).
(§2) Compounds to be screened were diluted in PBS supplemented to contain 2% newborn calf serum and 1% glutamine, and added in 100 μL volume to confluent cell monolayers in 24-well cluster plates. Immediately thereafter HSV-1 and HSV-2, diluted in the supplemented PBS medium, were added to the wells in 50 μl volume such that the final concentration of compound was 50 μM, 5 μM and 1 μM and the multiplicity of infection was 0.1. The plates were incubated at 37° C. for 1 hour and then virus-containing inoculum was removed and the wells were washed once in PBS. Compound, diluted to 50 μM, 5 μM and 1 μM in DMEM supplemented to contain 2% newborn calf serum and 1% each penicillin/streptomycin, was added at 0.5 mL/well. Plates were incubated at 37° C. an additional 23 hours, and then the plates were visually inspected through a phase contrast microscope for cytopathic effect, and for toxic effect. The entire contents of each well were collected by scraping. Samples were frozen at −80° C., and then subsequently thawed, sonicated, and infectious virus titer was determined by standard plaque assay on Vero cell monolayers. Because the compounds were dissolved at 10 mM in 100% DMSO, equivalent dilutions of DMSO were added to additional wells as a control for effects of the diluent. Each experiment was repeated once. EC50 values were determined as above except that serial dilutions of the compound to be tested were prepared starting at 50 μM. The inhibitory values were calculated by non-linear curve-fitting in GraphPad Prism.

human RNaseH1 = target: T1, human RNaseH1 (Homo sapiens, UniProt O60930); assay: Human RNaseH1 oligonucleotide-directed RNA cleavage assay; format: biochemical; conditions: recombinant human RNaseH1
T1 construct: made in house; host or cells: E. coli
T1 sequence (O60930 1-286): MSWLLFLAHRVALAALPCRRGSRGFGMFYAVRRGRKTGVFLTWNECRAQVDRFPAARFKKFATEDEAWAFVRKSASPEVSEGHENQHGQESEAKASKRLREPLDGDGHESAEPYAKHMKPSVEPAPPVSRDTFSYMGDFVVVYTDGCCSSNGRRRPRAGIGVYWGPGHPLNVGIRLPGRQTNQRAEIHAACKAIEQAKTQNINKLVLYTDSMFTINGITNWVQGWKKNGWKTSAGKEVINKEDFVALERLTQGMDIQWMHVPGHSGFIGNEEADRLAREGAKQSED
Experimental: Recombinant HBV RNaseH and human RNaseH1 were expressed in E. coli and partially purified by nickel-affinity chromatography as previously described in Tavis, et al. (2013). The enriched extracts were dialyzed into 50 mM HEPES pH 7.3, 300 mM NaCl, 20% glycerol, and 5 mM DTT and stored in liquid nitrogen.
RNaseH activity was measured using an oligonucleotide-directed RNA cleavage assay as previously described in Hu, et al., Tavis, et al., and Cai, et al. (2013; 2013; and 2014, respectfully). Briefly, 6 μL protein extract was mixed on ice with an internally ^32P-labeled 264 nt RNA derived from the Duck Hepatitis B Virus genome (DRF+ RNA) plus 3 μg oligonucleotide D2507- or its inverse-complement oligonucleotide D2526+ as a negative control. This mixture was incubated with test compounds in 50 mM Tris pH 8.0, 190 mM NaCl, 5 mM MgCl2, 3.5 mM DTT, 0.05% NP40, 6% glycerol, and 1% DMSO at 42° C. for 90 minutes. Cleavage products were resolved by denaturing polyacrylamide gel electrophoresis, detected by autoradiography, and quantified using ImageJ. Non-specific background values were determined from the incorrect oligonucleotide negative control lane and subtracted from all experimental values. IC50 values were then calculated with GraphPad Prism using three-parameter log(inhibitor) vs. response non-linear curve fitting with the curve minimum set to zero to reflect background subtraction.

HSV-1 = assay: Anti-HSV-1 replication assay (virus yield by plaque assay on Vero cells); format: cell-based, herpes simplex virus 1 (HSV-1); conditions: for HSV-1 inhibition category: semi-quantitative replication inhibition assay
Experimental: as §1, §2

in vitro = format: cell-based; conditions: African green monkey
Experimental: Qualitative assessments of cytotoxicity were done visually by inspecting the cells in the primary screening assays. For the quantitative assays, cells were plated in 96-well plates at 1.0×10^4 per well. The next day the compounds were added at 0.78 to 100 μM in a final concentration of 1% (v/v) DMSO, and the cells were incubated for 24 hours under conditions identical to those employed for the viral replication inhibition assays. Mitochondrial toxicity was measured by incubating the cells with 0.25 mg/mL thiazolyl blue tetrazolium bromide (MTT, SigmaAldrich Chemical Co.), the cultures were incubated for 60 min, metabolites were solubilized in acidic isopropanol, and absorbance was read at 570 nm. CC50 values were calculated by non-linear curve fitting using GraphPad Prism.
A quantitative toxicity measurement was conducted. Toxicity was assessed by measuring release of intracellular proteases into the culture medium due to cellular lysis. Cells were plated in 96-well plates at 1.0×10^4 per well. The next day compound was added in concentrations ranging from 0.78 to 100 μM in a final concentration of 1% (v/v) DMSO. The cells were incubated for 24 hours under conditions identical to those employed for the viral replication inhibition assays, and then […] according to the manufacturer's instructions. […]

[2] = 1 μM, Vero cells, moi 0.1, 24 h, relative to DMSO control
[3] = 5 μM, Vero cells, moi 0.1, 24 h, relative to DMSO control
[4] = 50 μM, Vero cells, moi 0.1, 24 h, relative to DMSO control

Cc1cc(CC(C)CC(C)(C)C)n(O)c(=O)c1 (centres unmarked) [#191, Piroctone olamine]
ER ([1]; extraction ratio, mouse liver microsomes): 0.09 | Non-P450 turn-over ([1]; mouse liver microsomes): No | half-life at 1 μM ([1]; mouse liver microsomes, 1 μM compound, read-out: t ½): > 2 h | CLint scaled at 1 μM ([1]; 1 μM compound, read-out: CL ‘hep): 8 mL/min/kg | CLint scaled at 1 μM ([1]; 1 μM compound, read-out: CL’int): 9 mL/min/kg | HSV-2 inhibition category (HSV-2; 1 μM): intermediate (1 to 3 log10 suppression, which equals 10- to 1,000-fold reduction) | HSV-2 Log10 suppression 1 μM (HSV-2; [2]): 1.70 log10 | HSV-2 replication inhibition, fold (HSV-2; 5 μM): 39,000 fold | HSV-2 inhibition category (HSV-2; 5 μM): strong (3 to 6 log10 suppression, or 1,000- to 1,000,000-fold reduction) | suppression of replication of three primary clinical isolates of HSV-2 (HSV-2; 5 μM, Vero cells, moi 0.1, 24 h (FIG. 2)): > 4.7 log10 | HSV-2 Log10 suppression 5 μM (HSV-2; [3]): 4.59 log10 and 4.53 log10 | inhibition of wild-type HSV-2 (HSV-2; 5 μM, laboratory strain 333, Vero cells, 24 h (FIG. 3)): efficiently inhibited | HSV-2 inhibition category (HSV-2; 50 μM): strong (3 to 6 log10 suppression, or 1,000- to 1,000,000-fold reduction) | HSV-2 Log10 suppression 50 μM (HSV-2; [4]): 4.25 log10 | Anti-human RNase H1 (human RNaseH1): did not inhibit | HSV-1 inhibition category (HSV-1; 1 μM): intermediate (1 to 3 log10 suppression, which equals 10- to 1,000-fold reduction) | HSV-1 Log10 suppression 1 μM (HSV-1; [2]): 2.71 log10 | HSV-1 replication inhibition, fold (HSV-1; 5 μM): 4,074 fold | HSV-1 inhibition category (HSV-1; 5 μM): strong (3 to 6 log10 suppression, or 1,000- to 1,000,000-fold reduction) | HSV-1 Log10 suppression 5 μM (HSV-1; [3]): 3.61 log10 and 3.53 log10 | HSV-1 inhibition category (HSV-1; 50 μM): strong (3 to 6 log10 suppression, or 1,000- to 1,000,000-fold reduction) | HSV-1 Log10 suppression 50 μM (HSV-1; [4]): 3.85 log10 | CC50 at 24 h (in vitro): > 100 µM
